Experimental data: PubChem BioAssay AID330 (DTP/NCI, 2004)
Toxic doses and inconclusive results are not listed.

Test system: P388 leukemia ip, CD2F1 mice, survival T/C
Assay: NCI In Vivo Anticancer Drug Screen. Data for tumor model P388 Leukemia (intraperitoneal) in CD2F1 (CDF1) mice
Settings: endpoint: median survival time, higher = longer survival
Outline: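 Mice carrying the transplanted tumor received test compound or vehicle. Survival was recorded in each group, and the value is the treated-group measurement divided by that of the vehicle-treated control group.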

[1] = dose: 50.0 mg/kg/injection, schedule: Q01DX005 (ip), vehicle: Klucel (hydroxypropylcellulose) (HPC)
[2] = dose: 100.0 mg/kg/injection, schedule: Q01DX005 (ip), vehicle: Klucel (hydroxypropylcellulose) (HPC)
[3] = dose: 200.0 mg/kg/injection, schedule: Q01DX005 (ip), vehicle: Klucel (hydroxypropylcellulose) (HPC)

## CC1=C(Cl)CC(/C(C)=C/Cl)OC1(O)CBr (stereo not given)
dose: 0.1 mg/kg/injection, schedule: Q01DX009 (ip), vehicle: Klucel (hydroxypropylcellulose) (HPC)
  T/C: 100 % of control
dose: 0.2 mg/kg/injection, schedule: Q01DX009 (ip), vehicle: Klucel (hydroxypropylcellulose) (HPC)
  T/C: 100 % of control
dose: 0.38 mg/kg/injection, schedule: Q01DX009 (ip), vehicle: Klucel (hydroxypropylcellulose) (HPC)
  T/C: 95 % of control
dose: 0.4 mg/kg/injection, schedule: Q01DX009 (ip), vehicle: Klucel (hydroxypropylcellulose) (HPC)
  T/C: 97 % of control

## CCOC1NC(=O)C(OCC)NC1=O (stereo not given)
[1]
  T/C: 96 % of control
[2]
  T/C: 99 % of control
[3]
  T/C: 97 % of control

## CCOC(=O)C1CN(C(=O)OCC)CCC1NC(C)=O (stereo not given)
dose: 60.0 mg/kg/injection, schedule: Q01DX005 (ip), vehicle: Klucel (hydroxypropylcellulose) (HPC)
  T/C: 102 % of control
dose: 120.0 mg/kg/injection, schedule: Q01DX005 (ip), vehicle: Klucel (hydroxypropylcellulose) (HPC)
  T/C: 96 % of control
dose: 240.0 mg/kg/injection, schedule: Q01DX005 (ip), vehicle: Klucel (hydroxypropylcellulose) (HPC)
  T/C: 98 % of control

## Nc1nc(-c2ccc(Cl)cc2)nc2sc3c(c12)CCCCC3
dose: 50.0 mg/kg/injection, schedule: Q01DX005 (ip), vehicle: saline with Tween-80
  T/C: 90 % of control
dose: 100.0 mg/kg/injection, schedule: Q01DX005 (ip), vehicle: saline with Tween-80
  T/C: 90 % of control
dose: 200.0 mg/kg/injection, schedule: Q01DX005 (ip), vehicle: saline with Tween-80
  T/C: 95 % of control

## Cc1ccccc1NC(=O)Nc1ccc(N(CCCl)CCCl)cc1
dose: 50.0 mg/kg/injection, schedule: Q01DX001 (ip), vehicle: Klucel (hydroxypropylcellulose) (HPC)
  T/C: 92 % of control
dose: 100.0 mg/kg/injection, schedule: Q01DX001 (ip), vehicle: Klucel (hydroxypropylcellulose) (HPC)
  T/C: 109 % of control
dose: 200.0 mg/kg/injection, schedule: Q01DX001 (ip), vehicle: Klucel (hydroxypropylcellulose) (HPC)
  T/C: 120 % of control

## NC(=O)CC1(O)c2ccccc2C(=O)c2ccccc21
dose: 3.13 mg/kg/injection, schedule: Q01DX009 (ip), vehicle: clinical formulation
  T/C: 97 % of control
dose: 6.25 mg/kg/injection, schedule: Q01DX009 (ip), vehicle: clinical formulation
  T/C: 104 % of control
dose: 12.5 mg/kg/injection, schedule: Q01DX009 (ip), vehicle: clinical formulation
  T/C: 97 % of control
dose: 25.0 mg/kg/injection, schedule: Q01DX009 (ip), vehicle: clinical formulation
  T/C: 94 % of control
dose: 50.0 mg/kg/injection, schedule: Q01DX009 (ip), vehicle: clinical formulation
  T/C: 97 % of control
dose: 100.0 mg/kg/injection, schedule: Q01DX009 (ip), vehicle: clinical formulation
  T/C: 100 % of control

## CNc1nnnc2c1sc1ccccc12
dose: 100.0 mg/kg/injection, schedule: Q01DX001 (ip), vehicle: saline with Tween-80
  T/C: 105 % of control
dose: 200.0 mg/kg/injection, schedule: Q01DX001 (ip), vehicle: saline with Tween-80
  T/C: 102 % of control
dose: 400.0 mg/kg/injection, schedule: Q01DX001 (ip), vehicle: saline with Tween-80
  T/C: 104 % of control

## CCC(=O)Nc1nnc(SCCCCCCCCCCSc2nnc(NC(=O)CC)s2)s1
[1]
  T/C: 89 % of control
[2]
  T/C: 91 % of control
[3]
  T/C: 87 % of control

## [O-]c1nn(C2OC(CO)C(O)C2O)c2cccc[n+]12 (stereo not given)
dose: 100.0 mg/kg/injection, schedule: Q01DX001 (ip), vehicle: saline
  T/C: 110 % of control
dose: 200.0 mg/kg/injection, schedule: Q01DX001 (ip), vehicle: saline
  T/C: 108 % of control
dose: 400.0 mg/kg/injection, schedule: Q01DX001 (ip), vehicle: saline
  T/C: 95 % of control

## Nc1ccc2snc3c2c1C(=O)c1ccccc1-3
[1]
  T/C: 99 % of control
[2]
  T/C: 91 % of control
[3]
  T/C: 100 % of control

## O=S(CCCl)CCCl
dose: 6.25 mg/kg/injection, schedule: Q01DX001 (ip), vehicle: saline
  T/C: 117 % of control
dose: 12.5 mg/kg/injection, schedule: Q01DX001 (ip), vehicle: saline
  T/C: 152 % of control

## CCC(C)C(N)C(=O)N1CCCC1C(=O)NC(C(=O)O)C(C)CC (stereo not given)
dose: 8.25 mg/kg/injection, schedule: Q01DX005 (ip), vehicle: saline
  T/C: 99 % of control
dose: 16.5 mg/kg/injection, schedule: Q01DX005 (ip), vehicle: saline
  T/C: 102 % of control
dose: 33.0 mg/kg/injection, schedule: Q01DX005 (ip), vehicle: saline
  T/C: 94 % of control
dose: 66.0 mg/kg/injection, schedule: Q01DX005 (ip), vehicle: saline
  T/C: 102 % of control
